Here are results for two molecules from ChEMBL document CHEMBL4800727 (2021).

Activity calls are given as the source filed them. The rule behind the calls is not given here.

Test [1] concerns the target 5-hydroxytryptamine receptor 1E (Homo sapiens) (UniProt P28566). As to conditions: Compound concentration 10.0 uM.
Test [2] has as its target Sodium-dependent dopamine transporter (Homo sapiens, UniProt Q01959). As to the kind of experiment: GPCRScan assay: inhibition of DAT. Also on record: radioligand conc. used [nm] 3.6 – 16.0, parental cells stable HEK.
The target of test [3] is G protein-coupled receptor kinase 5 (Homo sapiens) (UniProt P34947). In words: G protein-coupled receptor kinase 5 Millipore kinase panel. The conditions noted are these: Compound concentration 10.0 uM.
The target of test [4] is Serine/threonine-protein kinase DCLK2 (Homo sapiens) (UniProt Q8N568). As to the kind of experiment: doublecortin-like kinase 2 Millipore kinase panel. The conditions noted are these: Compound concentration 10.0 uM.
Test [5] has as its target Tyrosine-protein kinase Fes/Fps (Homo sapiens) (UniProt P07332). In words: feline sarcoma oncogene Millipore kinase panel. As to conditions: Compound concentration 10.0 uM.
The target in test [6] is 5-hydroxytryptamine receptor 2B (Homo sapiens, UniProt P41595). As to the kind of experiment: h5HT2B Cerep panel. The conditions noted are these: Compound concentration 10.0 uM.
5-hydroxytryptamine receptor 2B, sequence (P41595 whole entry): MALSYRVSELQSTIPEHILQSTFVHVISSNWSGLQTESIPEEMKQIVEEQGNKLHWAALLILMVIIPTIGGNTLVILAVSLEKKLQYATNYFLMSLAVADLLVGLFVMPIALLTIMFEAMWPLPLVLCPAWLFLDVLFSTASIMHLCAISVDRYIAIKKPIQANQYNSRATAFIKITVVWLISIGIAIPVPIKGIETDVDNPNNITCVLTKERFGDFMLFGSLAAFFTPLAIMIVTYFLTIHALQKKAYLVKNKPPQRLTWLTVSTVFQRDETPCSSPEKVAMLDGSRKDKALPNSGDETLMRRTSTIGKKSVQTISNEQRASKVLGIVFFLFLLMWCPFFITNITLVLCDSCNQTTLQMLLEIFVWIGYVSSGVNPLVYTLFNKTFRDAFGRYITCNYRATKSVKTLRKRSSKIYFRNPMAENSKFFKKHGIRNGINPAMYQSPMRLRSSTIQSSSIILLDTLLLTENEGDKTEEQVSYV
Test [7] has as its target Neurotensin receptor type 1 (Homo sapiens) (UniProt P30989). As to the kind of experiment: hNT1 Cerep panel. As to conditions: Compound concentration 10.0 uM.
The target in test [8] is Mitogen-activated protein kinase kinase kinase kinase 2 (Homo sapiens) (UniProt Q12851). In words: mitogen-activated protein kinase kinase kinase kinase 2 Millipore kinase panel. As to conditions: Compound concentration 10.0 uM.
Test [9] deals with Mitogen-activated protein kinase 10 (Homo sapiens) (UniProt P53779). In words: mitogen-activated protein kinase 10 Millipore kinase panel. The conditions noted are these: Compound concentration 10.0 uM.
In test [10] the target is Adenosine receptor A2a (Homo sapiens) (UniProt P29274). As to the kind of experiment: hA2A Cerep panel. The conditions noted are these: Compound concentration 10.0 uM.
Test [11] deals with Ribosomal protein S6 kinase alpha-6 (Homo sapiens) (UniProt Q9UK32). In words: ribosomal protein S6 kinase, 90kDa, polypeptide 6 Millipore kinase panel. The conditions noted are these: Compound concentration 10.0 uM.
In test [12] the target is Serine/threonine-protein kinase MARK2 (Homo sapiens) (UniProt Q7KZI7). In words: MAP/microtubule affinity-regulating kinase 2 Millipore kinase panel. The conditions noted are these: Compound concentration 10.0 uM.
Test [13] deals with Alpha-2A adrenergic receptor (Rattus norvegicus) (UniProt P22909). In words: rAa2 Cerep panel. The conditions noted are these: Compound concentration 10.0 uM.
Test [14] addresses cAMP and cAMP-inhibited cGMP 3',5'-cyclic phosphodiesterase 10A (Homo sapiens, UniProt Q9Y233). In words: hPDE10A2 PDE scan.
The target of test [15] is Serine/threonine-protein kinase PLK3 (Homo sapiens) (UniProt Q9H4B4). As to the kind of experiment: polo-like kinase 3 Millipore kinase panel. The conditions noted are these: Compound concentration 10.0 uM.
Test [16] concerns the target Prostaglandin E2 receptor EP2 subtype (Homo sapiens) (UniProt P43116). In words: hEP2 Cerep panel. The conditions noted are these: Compound concentration 10.0 uM.
The species entered for test [17] is Rattus norvegicus. In words: rCL channel Cerep panel. As to conditions: Compound concentration 10.0 uM.
The target in test [18] is Rho-associated protein kinase 1 (Homo sapiens) (UniProt Q13464). As to the kind of experiment: Rho-associated, coiled-coil containing protein kinase 1 Millipore kinase panel. As to conditions: Compound concentration 10.0 uM.
Test [19] deals with Muscle, skeletal receptor tyrosine-protein kinase (Homo sapiens) (UniProt O15146). As to the kind of experiment: muscle, skeletal, receptor tyrosine kinase Millipore kinase panel. As to conditions: Compound concentration 10.0 uM.
Test [20] addresses Fibroblast growth factor receptor 1 (Homo sapiens) (UniProt P11362). As to the kind of experiment: fibroblast growth factor receptor 1 Millipore kinase panel. The conditions noted are these: Compound concentration 10.0 uM.
The target of test [21] is Serine/threonine-protein kinase Nek3 (Homo sapiens) (UniProt P51956). As to the kind of experiment: NIMA -related kinase 3 Millipore kinase panel. The conditions noted are these: Compound concentration 10.0 uM.
For test [22], the target named is Cholecystokinin receptor type A (Homo sapiens) (UniProt P32238). As to the kind of experiment: hCCKA Cerep panel. As to conditions: Compound concentration 10.0 uM.
Cholecystokinin receptor type A (Homo sapiens), sequence (P32238 whole entry): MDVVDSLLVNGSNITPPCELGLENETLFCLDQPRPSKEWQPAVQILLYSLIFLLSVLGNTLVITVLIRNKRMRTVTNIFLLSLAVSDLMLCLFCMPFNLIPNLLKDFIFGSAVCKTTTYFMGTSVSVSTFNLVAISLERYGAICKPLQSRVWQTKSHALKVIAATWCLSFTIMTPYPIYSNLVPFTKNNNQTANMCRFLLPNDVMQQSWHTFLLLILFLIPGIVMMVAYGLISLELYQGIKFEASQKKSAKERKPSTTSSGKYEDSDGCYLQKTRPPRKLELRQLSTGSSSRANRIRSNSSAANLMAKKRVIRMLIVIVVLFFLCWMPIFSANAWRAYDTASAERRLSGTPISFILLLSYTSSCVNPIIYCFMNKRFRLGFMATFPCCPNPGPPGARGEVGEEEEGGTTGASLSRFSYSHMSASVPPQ
The target of test [23] is Neuronal acetylcholine receptor; alpha4/beta2 (Homo sapiens) (UniProt P17787+P43681). In words: hNneuronala4b2 Cerep panel. The conditions noted are these: Compound concentration 10.0 uM.
For test [24], the target named is T1, 5-hydroxytryptamine receptor 3A (Homo sapiens) (UniProt P46098).
T1 sequence (whole entry): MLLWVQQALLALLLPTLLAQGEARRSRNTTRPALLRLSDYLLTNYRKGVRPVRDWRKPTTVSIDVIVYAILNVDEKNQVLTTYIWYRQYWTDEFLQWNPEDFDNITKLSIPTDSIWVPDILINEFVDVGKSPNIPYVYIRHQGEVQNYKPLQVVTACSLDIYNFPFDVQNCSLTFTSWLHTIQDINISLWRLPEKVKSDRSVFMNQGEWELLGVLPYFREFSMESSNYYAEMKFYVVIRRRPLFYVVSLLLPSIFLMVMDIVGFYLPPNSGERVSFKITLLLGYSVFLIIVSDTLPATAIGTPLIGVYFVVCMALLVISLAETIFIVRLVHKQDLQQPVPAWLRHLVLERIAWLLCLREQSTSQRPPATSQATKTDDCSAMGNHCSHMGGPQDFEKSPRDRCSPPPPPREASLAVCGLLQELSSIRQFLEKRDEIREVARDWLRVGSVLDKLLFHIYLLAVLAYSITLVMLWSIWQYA
As to the kind of experiment: h5HT3 Cerep panel. As to conditions: Compound concentration 10.0 uM.

Test [25] addresses Phosphorylase b kinase gamma catalytic chain, liver/testis isoform (Homo sapiens) (UniProt P15735). In words: phosphorylase kinase, gamma 2 Millipore kinase panel. As to conditions: Compound concentration 10.0 uM.
For test [26], the target named is Testis-specific serine/threonine-protein kinase 2 (Homo sapiens) (UniProt Q96PF2). In words: testis-specific serine kinase 2 Millipore kinase panel. The conditions noted are these: Compound concentration 10.0 uM.
Testis-specific serine/threonine-protein kinase 2 (Homo sapiens), sequence (Q96PF2 whole entry): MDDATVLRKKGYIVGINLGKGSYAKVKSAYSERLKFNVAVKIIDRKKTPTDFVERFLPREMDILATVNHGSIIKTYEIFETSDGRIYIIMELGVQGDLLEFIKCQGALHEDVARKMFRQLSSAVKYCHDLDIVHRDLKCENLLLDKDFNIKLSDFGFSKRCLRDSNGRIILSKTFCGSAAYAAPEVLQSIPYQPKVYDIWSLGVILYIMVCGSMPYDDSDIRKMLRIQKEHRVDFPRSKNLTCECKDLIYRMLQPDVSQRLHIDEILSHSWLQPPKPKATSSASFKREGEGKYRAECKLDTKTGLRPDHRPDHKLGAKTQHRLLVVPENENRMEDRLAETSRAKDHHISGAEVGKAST
In test [27] the target is CDK6/cyclin D3 (Homo sapiens) (UniProt P30281+Q00534). In words: cyclin-dependent kinase 6 / cyclinD3 Millipore kinase panel. The test is classed as protein-complex assay. The conditions noted are these: Compound concentration 10.0 uM.
Test [28] deals with cAMP and cAMP-inhibited cGMP 3',5'-cyclic phosphodiesterase 10A (Mus musculus, UniProt Q8CA95). As to the kind of experiment: SPA with mouse PDE10A.
The target of test [29] is Serine/threonine-protein kinase NLK (Homo sapiens) (UniProt Q9UBE8). As to the kind of experiment: nemo-like kinase Millipore kinase panel. The conditions noted are these: Compound concentration 10.0 uM.
For test [30], the species on record is Rattus norvegicus. In words: rK channel Cerep panel. As to conditions: Compound concentration 10.0 uM.
Test [31] has as its target Focal adhesion kinase 1 (Homo sapiens) (UniProt Q05397). In words: PTK2 protein tyrosine kinase 2 Millipore kinase panel. As to conditions: Compound concentration 10.0 uM.
In test [32] the target is Serine/threonine-protein kinase TAO2 (Homo sapiens) (UniProt Q9UL54). As to the kind of experiment: TAO kinase 2 Millipore kinase panel. As to conditions: Compound concentration 10.0 uM.
Test [33] deals with Mitogen-activated protein kinase kinase kinase 5 (Homo sapiens) (UniProt Q99683). As to the kind of experiment: mitogen-activated protein kinase kinase kinase 5 Millipore kinase panel. The conditions noted are these: Compound concentration 10.0 uM.
Mitogen-activated protein kinase kinase kinase 5 (Homo sapiens), sequence (Q99683 whole entry): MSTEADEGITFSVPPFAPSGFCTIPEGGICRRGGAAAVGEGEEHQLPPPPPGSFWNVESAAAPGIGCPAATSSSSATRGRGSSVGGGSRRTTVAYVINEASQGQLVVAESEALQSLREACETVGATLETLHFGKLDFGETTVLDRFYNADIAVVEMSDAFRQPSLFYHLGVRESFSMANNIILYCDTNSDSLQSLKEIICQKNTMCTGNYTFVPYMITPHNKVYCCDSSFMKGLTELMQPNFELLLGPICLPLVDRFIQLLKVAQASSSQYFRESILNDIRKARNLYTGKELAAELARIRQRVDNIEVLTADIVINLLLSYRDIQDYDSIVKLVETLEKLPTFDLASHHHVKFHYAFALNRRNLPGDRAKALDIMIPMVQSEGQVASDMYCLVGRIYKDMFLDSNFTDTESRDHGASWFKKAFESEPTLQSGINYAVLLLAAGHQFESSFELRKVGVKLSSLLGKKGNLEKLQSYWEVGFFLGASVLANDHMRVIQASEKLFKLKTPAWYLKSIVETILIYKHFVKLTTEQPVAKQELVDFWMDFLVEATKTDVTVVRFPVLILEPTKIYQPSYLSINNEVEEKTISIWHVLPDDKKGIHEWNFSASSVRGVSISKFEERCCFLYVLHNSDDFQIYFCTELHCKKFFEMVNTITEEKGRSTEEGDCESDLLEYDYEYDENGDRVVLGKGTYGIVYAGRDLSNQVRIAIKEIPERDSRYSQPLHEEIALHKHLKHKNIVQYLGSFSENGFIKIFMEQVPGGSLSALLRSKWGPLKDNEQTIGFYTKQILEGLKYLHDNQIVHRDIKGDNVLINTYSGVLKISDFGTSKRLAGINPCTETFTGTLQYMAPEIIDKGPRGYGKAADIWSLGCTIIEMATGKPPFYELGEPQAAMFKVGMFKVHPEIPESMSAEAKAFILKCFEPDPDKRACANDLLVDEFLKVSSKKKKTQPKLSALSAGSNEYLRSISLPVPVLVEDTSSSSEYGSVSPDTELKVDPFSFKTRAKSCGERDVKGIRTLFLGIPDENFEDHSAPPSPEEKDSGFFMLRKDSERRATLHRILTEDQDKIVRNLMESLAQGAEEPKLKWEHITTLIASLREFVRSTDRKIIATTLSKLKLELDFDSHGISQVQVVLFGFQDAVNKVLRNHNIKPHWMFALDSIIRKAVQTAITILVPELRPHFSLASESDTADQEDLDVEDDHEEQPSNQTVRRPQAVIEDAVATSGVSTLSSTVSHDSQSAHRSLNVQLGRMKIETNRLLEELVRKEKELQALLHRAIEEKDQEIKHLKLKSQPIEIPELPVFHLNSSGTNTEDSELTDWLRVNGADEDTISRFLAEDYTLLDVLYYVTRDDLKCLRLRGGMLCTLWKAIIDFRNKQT
The target of test [34] is Mitogen-activated protein kinase 9 (Homo sapiens) (UniProt P45984). In words: mitogen-activated protein kinase 9 Millipore kinase panel. The conditions noted are these: Compound concentration 10.0 uM.
Mitogen-activated protein kinase 9 (Homo sapiens), sequence (P45984 whole entry, looked up): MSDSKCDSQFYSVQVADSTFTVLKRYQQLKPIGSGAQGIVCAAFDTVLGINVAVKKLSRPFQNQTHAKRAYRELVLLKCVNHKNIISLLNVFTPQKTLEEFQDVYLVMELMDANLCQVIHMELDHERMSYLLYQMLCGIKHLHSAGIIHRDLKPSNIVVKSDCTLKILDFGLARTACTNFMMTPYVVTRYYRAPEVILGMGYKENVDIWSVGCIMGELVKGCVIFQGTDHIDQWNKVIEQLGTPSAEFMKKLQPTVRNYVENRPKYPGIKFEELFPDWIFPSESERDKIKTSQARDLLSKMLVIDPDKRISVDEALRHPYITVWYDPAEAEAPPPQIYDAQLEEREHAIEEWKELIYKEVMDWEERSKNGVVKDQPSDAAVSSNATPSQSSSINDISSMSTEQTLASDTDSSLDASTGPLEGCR
For test [35], the target named is Tyrosine-protein kinase Lck (Homo sapiens) (UniProt P06239). As to the kind of experiment: lymphocyte-specific protein tyrosine kinase (activated) Millipore kinase panel. The conditions noted are these: Compound concentration 10.0 uM.
Tyrosine-protein kinase Lck (Homo sapiens), sequence (P06239 2-509 limits assumed): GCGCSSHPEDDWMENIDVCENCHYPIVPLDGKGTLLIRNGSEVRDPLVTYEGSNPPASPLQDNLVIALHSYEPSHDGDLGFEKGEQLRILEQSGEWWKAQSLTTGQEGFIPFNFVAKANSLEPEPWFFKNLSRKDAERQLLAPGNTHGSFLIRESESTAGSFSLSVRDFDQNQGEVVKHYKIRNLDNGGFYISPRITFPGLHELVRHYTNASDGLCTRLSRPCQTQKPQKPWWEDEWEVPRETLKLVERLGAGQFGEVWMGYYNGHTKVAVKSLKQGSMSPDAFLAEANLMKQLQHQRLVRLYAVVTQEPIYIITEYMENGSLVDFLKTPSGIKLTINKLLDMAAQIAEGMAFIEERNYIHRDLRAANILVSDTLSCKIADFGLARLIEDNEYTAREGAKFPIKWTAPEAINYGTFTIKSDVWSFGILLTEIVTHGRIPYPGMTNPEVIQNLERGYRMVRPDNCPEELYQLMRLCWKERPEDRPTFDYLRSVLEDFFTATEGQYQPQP
The target of test [36] is Histamine H4 receptor (Homo sapiens) (UniProt Q9H3N8). As to conditions: Compound concentration 10.0 uM.
Test [37] addresses Tyrosine-protein kinase Tec (Homo sapiens) (UniProt P42680). As to the kind of experiment: tec protein tyrosine kinase (activated) Millipore kinase panel. The conditions noted are these: Compound concentration 10.0 uM.
Test [38] concerns the target Tyrosine-protein kinase Lck (Homo sapiens) (UniProt P06239). As to the kind of experiment: lymphocyte-specific protein tyrosine kinase Millipore kinase panel. The conditions noted are these: Compound concentration 10.0 uM.
The target in test [39] is Cyclin-dependent kinase 5/CDK5 activator 1 (Homo sapiens) (UniProt Q00535+Q15078). As to the kind of experiment: cyclin-dependent kinase 5 / p35 Millipore kinase panel. The test is classed as protein-complex assay. The conditions noted are these: Compound concentration 10.0 uM.
Test [40] deals with Mitogen-activated protein kinase 14 (Homo sapiens) (UniProt Q16539). In words: mitogen-activated protein kinase 14 Millipore kinase panel. As to conditions: Compound concentration 10.0 uM.
Test [41] concerns the target Prostacyclin receptor (Homo sapiens) (UniProt P43119). In words: hIP1 Cerep panel. The conditions noted are these: Compound concentration 10.0 uM.
The target in test [42] is Serine/threonine-protein kinase WNK2 (Homo sapiens) (UniProt Q9Y3S1). In words: WNK lysine deficient protein kinase 2 Millipore kinase panel. The conditions noted are these: Compound concentration 10.0 uM.
For test [43], the target named is Tyrosine-protein kinase Fgr (Homo sapiens) (UniProt P09769). As to the kind of experiment: Gardner-Rasheed feline sarcoma viral (v-fgr) oncogene homolog Millipore kinase panel. As to conditions: Compound concentration 10.0 uM.

Sodium-dependent dopamine transporter, sequence (Q01959 whole entry): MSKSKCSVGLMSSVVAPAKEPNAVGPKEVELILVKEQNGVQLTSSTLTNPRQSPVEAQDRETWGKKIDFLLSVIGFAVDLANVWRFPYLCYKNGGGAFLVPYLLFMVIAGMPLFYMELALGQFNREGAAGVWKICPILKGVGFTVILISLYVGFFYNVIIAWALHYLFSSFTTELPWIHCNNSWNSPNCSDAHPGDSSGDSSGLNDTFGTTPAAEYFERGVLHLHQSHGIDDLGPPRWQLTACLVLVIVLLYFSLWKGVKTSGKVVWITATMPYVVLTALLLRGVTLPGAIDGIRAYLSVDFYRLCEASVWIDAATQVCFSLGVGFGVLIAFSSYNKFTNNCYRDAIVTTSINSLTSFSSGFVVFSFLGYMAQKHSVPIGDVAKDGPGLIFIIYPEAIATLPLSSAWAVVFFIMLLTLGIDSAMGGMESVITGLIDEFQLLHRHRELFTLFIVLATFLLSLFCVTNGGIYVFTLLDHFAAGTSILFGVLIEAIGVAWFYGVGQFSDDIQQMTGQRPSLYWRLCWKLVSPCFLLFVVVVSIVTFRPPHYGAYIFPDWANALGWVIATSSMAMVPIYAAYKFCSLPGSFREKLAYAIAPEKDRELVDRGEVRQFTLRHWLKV
5-hydroxytryptamine receptor 1E (Homo sapiens), sequence (P28566 whole entry): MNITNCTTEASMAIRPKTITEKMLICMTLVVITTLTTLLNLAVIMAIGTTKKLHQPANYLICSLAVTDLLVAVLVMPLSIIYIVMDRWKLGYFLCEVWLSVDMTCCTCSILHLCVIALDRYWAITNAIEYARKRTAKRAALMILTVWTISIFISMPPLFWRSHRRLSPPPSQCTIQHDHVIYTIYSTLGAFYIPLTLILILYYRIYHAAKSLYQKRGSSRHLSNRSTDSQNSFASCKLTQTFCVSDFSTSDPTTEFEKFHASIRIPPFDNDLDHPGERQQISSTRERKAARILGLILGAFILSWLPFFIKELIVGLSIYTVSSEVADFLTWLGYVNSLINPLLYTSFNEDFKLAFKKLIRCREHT
Phosphorylase b kinase gamma catalytic chain, liver/testis isoform (Homo sapiens), sequence (P15735 whole entry, canonical isoform): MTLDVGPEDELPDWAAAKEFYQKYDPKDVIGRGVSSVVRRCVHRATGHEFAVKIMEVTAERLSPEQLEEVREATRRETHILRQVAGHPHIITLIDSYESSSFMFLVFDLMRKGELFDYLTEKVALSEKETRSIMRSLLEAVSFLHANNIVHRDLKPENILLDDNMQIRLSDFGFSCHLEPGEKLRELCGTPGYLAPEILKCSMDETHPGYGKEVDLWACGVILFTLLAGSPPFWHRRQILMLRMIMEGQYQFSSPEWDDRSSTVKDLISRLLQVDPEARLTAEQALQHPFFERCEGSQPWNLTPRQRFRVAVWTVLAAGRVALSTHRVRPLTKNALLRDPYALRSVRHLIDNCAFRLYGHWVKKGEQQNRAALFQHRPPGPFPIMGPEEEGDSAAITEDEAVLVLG

`c1ccc(C2CCN(c3cnc4c(N5CCOCC5)nccn34)CC2)cc1`: the inhibition (in general, the change of the read-out against control, counted positive when it falls) in test [1] was 5.84%. Moreover, the values for the Ki in [2] (read-out: Ki) and in [2] (read-out: pKi (converted)) were 4.13 µM and 4.17 µM, respectively.

As for `COCCc1ccc(-c2c(C)nc3c(N4CCOCC4)ccnn23)cn1` [JNJ-42396302], the inhibition was -4% in [3]; -6% in [4]; 13% in test [5]; -5% in test [8]; 18% in test [9]; -10% in [11]. The inhibition in test [12] is 9%; in [15], -2%; in test [18], -6%; in test [19], -6%; in test [20] it was 8%; in test [21], 4%. Further, the inhibition in test [25] is -3%; in test [26], 1%; in test [27], 0%; in test [29], 2%; in [31] it was -2%; in [32], 10%. For the same molecule, the inhibition in test [33] was -2%; in test [34], 0%; in test [35], -4%; in test [36], -1.08%; in test [37], 7%; in [38], 13%. The inhibition was -5% in test [39], -4% in test [40], -1% in test [42] and 7% in test [43]. Moreover, the effect is 2.4% in test [6]; 12.3% in test [7]; 17.8% in test [10]; 5.2% in test [13]; 3.95% in test [16]; -12.3% in the test listed under Rattus norvegicus [17]. For the same molecule, the effect in test [22] was -19.6%; in test [23], -3%; in [24] it was 3.35%; in the test filed under Rattus norvegicus [30] it was -9.45%; in [41], -23.4%. For the same molecule, the Ki in test [14] was 0.013 µM; in test [28], 0.011 µM (active).
